Laboratory results as given in BigSolDB 2.1.

CC1=NNC(=O)N(/N=C/c2cccnc2)C1
solubility (mole fraction)
Settings | 278.15 K | 283.15 K | 288.15 K | 293.15 K | 298.15 K | 303.15 K | 308.15 K | 313.15 K | 318.15 K
in 1,4-dioxane | – | – | 0.000462 | 0.00054 | 0.000629 | 0.000728 | 0.000842 | 0.000964 | 0.0011
in DMF | 0.0031 | 0.00347 | 0.00398 | 0.00451 | 0.00515 | 0.00582 | 0.00656 | 0.00738 | 0.00832
in DMSO | – | – | – | 0.00762 | 0.00862 | 0.00985 | 0.0112 | 0.0126 | 0.0144
in NMP | 0.00163 | 0.00189 | 0.0022 | 0.00255 | 0.00295 | 0.00338 | 0.00389 | 0.00444 | 0.00506
in isopropanol | 0.000198 | 0.000232 | 0.00028 | 0.000331 | 0.000391 | 0.000461 | 0.00054 | 0.000625 | 0.000729
in n-butanol | 0.000159 | 0.00019 | 0.000229 | 0.000277 | 0.000332 | 0.000389 | 0.00046 | 0.000537 | 0.000635
